The text below walks through data of US20050203119A1, “Dihydropyridine compounds for treating or preventing metabolic disorders” (priority 2003, published 2005).

In data set [1] the test system is male db/db mice (BKS.Cg-m+/+Lepr db/J). Nature of the data set: Intraperitoneal glucose tolerance test (IPGTT) in db/db mice (Example 122, FIGS. 3 and 5). It counts as in vivo, mouse. The note with it: IPGTT.
Data set [2] has the same test system. Nature of the data set: Oral glucose tolerance test (OGTT) in db/db mice (Example 122, FIG. 4). In kind it is in vivo, mouse. To be noted: orally dosed. Here is the method:
To determine the effect of a test compound on blood glucose levels in diabetic mice, intraperitoneal and/or oral glucose tolerance tests (IPGTT and OGTT, respectively) were conducted. Six to eight week old, male db/db mice (BKS.Cg-m+/+Lepr^db/J; stock number 000642), homozygous for a mutation in the gene encoding the leptin receptor, were purchased from The Jackson Laboratory (Bar Harbor, Me. USA). Animals were singly housed in conventional caging on a 12 hr/12 hr light/dark cycle, acclimated for at least five days prior to use and fed normal laboratory chow ad libitum between experiments. Studies were conducted with animals between seven and fourteen weeks of age. […]
To perform an IPGTT or OGTT, db/db mice were fasted overnight beginning on day 0 at −17.5 to −18.5 hrs relative to the glucose dose on day 1 (all time points below are stated relative to the time of an intraperitoneal or oral glucose dose on day 1). At −4.5 hrs, animals were weighed, blood was collected by tail vein lancing and fasted blood glucose levels determined using a hand-held glucometer (MediSense Precision Xtra or LifeScan OneTouch Ultra). […] Blood glucose levels were determined as above at −45 min and +45 min, and also +90 min and/or +150 min (see FIG. 3 and the Table in this section). Alternatively, blood glucose levels were determined at −30 min, +30 min, +60 min and +120 min (see FIGS. 4 and 5). […]

A further data set relates to Lepr db mice. Nature of the data set: Oral glucose tolerance test in Lepr db mice (Example 120). It counts as in vivo, mouse. Here is the method:
Compound 39 (25, 50 and 100 mg/kg) and vehicle (0.5% Methylcellulose) were administered orally at one hour before glucose loading (2 g/kg, PO) to Lepr db mice fasted for about 4 hours. Blood samples were collected sequentially from the retro-orbital sinus at pre-treatment one day before and about 1 and about 2 hours after glucose loading. Serum glucose values were obtained at about 1 and about 2 hours after glucose loading, percentage reductions were expressed as percentage of corresponding vehicle control values and unpaired Student's t test was then applied for comparison between test substance and vehicle group. Differences are considered significant at P<0.05 level.

In the next data set the test system is Male SD rats. To be noted: rat, in vivo. The protocol:
Male SD rats weighing 350-420 g were anesthetized with 2-3% isoflurane. The femoral artery and vein were catheterized and connected to a mean arterial blood pressure (MAP) and heart rate (HR) monitor and a continuous intravenous infusion pump. Under anesthesia, MAP and HR were recorded 10-20 minutes prior to and during the continuous intravenous infusion of test compounds for 60-70 minutes. The infusion rate, 0.14-0.16 ml/kg/minute, was determined on the basis of vehicle tolerance. The infusion doses, 1.0-1.25 mg/kg/minute, were selected, depending upon the solubility of the compound and effects on MAP and HR of the positive control compounds at the lethal dose. The maximal effective dose or lethal dose of test compounds were determined accordingly.

For data set [3], the system named is Male ZDF rats (ZDF/GmiCrl-fa/fa). Description: Seven day baseline glucose study in fed ZDF rats (Example 124, FIG. 9). It counts as in vivo, rat. To be noted: oral once daily 7 days. Here is the method: To determine the effect of a test compound on blood glucose levels in fed and fasted diabetic rats, a 7DBG study was conducted, followed immediately by an 8th day of dosing and an OGTT study on the same animals. Male ZDF rats (ZDF/GmiCrl-fa/fa), homozygous for a mutation in the gene encoding the leptin receptor, were purchased from Charles River Laboratories (Wilmington, Mass., USA). Animals were individually housed in clear polycarbonate cages (contact bedding) on a 12 hr/12 hr light/dark cycle, acclimated for at least one week prior to use and fed normal laboratory chow (Purina No. 5008) ad libitum. Studies were conducted with animals starting between eleven and twelve weeks of age. Animals were used for a single study before being replaced.
To perform a 7DBG plus OGTT study, animals were bled by tail vein lancing on day 0, 24 hrs prior to the first drug dose on day 1, and blood glucose levels were measured by a hand-held glucometer. Animals were randomized into dosing groups of 6 animals, with each group having a similar starting average glucose level. […] Blood glucose levels were determined daily using a hand-held glucometer 3 hrs after the first dose on days 1 through 7.
The serum glucose levels on days 3 or 7 as a percent of the serum glucose levels on day 0 for individual animals in each group (6 rats/group), were calculated using Formula 3. […]

As to `CCOC(=O)C1=C(COCCN)NC2=C(C(=O)CC(C)(C)C2)C1c1cccnc1` (stereo not drawn) [Compound 39, 2-(2-Amino-ethoxymethyl)-7,7-dimethyl-5-oxo-4-pyridin-3-yl-1,4,5,6,7,8-hexahydro-quinoline-3-carboxylic acid ethyl ester], in data set [1] (Compound 39 orally dosed alone), the “glucose intolerance relative to vehicle-treated animals (FIG. 5)” value is on record as “decreased”. The “effect of metformin on glucose intolerance in combination with Compound 39 (FIG. 5)” value in data set [1] (Compound 39 orally in combination with metformin) is “enhanced”. For the same molecule, in data set [2], the “glucose intolerance relative to vehicle-treated animals (FIG. 4)” value was “decreased”. Also, the “Serum Glucose” value with Lepr db mice (0 hr (pre-treatment one day before), 25 mg/kg group) amounted to 375.9 ± 16.3 mg/dL; in the data set with Lepr db mice (0 hr (pre-treatment one day before), 50 mg/kg group), 371.1 ± 15.2 mg/dL; in the data set on Lepr db mice (0 hr (pre-treatment one day before), 100 mg/kg group) it was 340.7 ± 14.2 mg/dL; with Lepr db mice (1 hr after glucose loading (2 g/kg PO), 25 mg/kg orally), 379.3 ± 18.5 mg/dL; in the data set with Lepr db mice (1 hr after glucose loading (2 g/kg PO), 50 mg/kg orally) it was 415.6 ± 11.0 mg/dL; with Lepr db mice (1 hr after glucose loading (2 g/kg PO), 100 mg/kg orally) it was 366.2 ± 17.3 mg/dL. In addition, the “Serum Glucose” value with Lepr db mice (2 hr after glucose loading (2 g/kg PO), 25 mg/kg orally) is given as 331.1 ± 14.5 mg/dL; in the data set with Lepr db mice (2 hr after glucose loading (2 g/kg PO), 50 mg/kg orally), 346 ± 16.8 mg/dL; with Lepr db mice (2 hr after glucose loading (2 g/kg PO), 100 mg/kg orally), 301.3 ± 28.4 mg/dL. For the same molecule, the “serum glucose % Reduction relative to vehicle” value is “(19.3) %” with Lepr db mice (1 hr after glucose loading, 25 mg/kg orally); “(11.6) %” in the data set with Lepr db mice (1 hr after glucose loading, 50 mg/kg orally); “(22.1) %” with Lepr db mice (1 hr after glucose loading, 100 mg/kg orally); “(11.8) %” with Lepr db mice (2 hr after glucose loading, 25 mg/kg orally); “(7.8) %” in the data set with Lepr db mice (2 hr after glucose loading, 50 mg/kg orally); “(19.7) %” with Lepr db mice (2 hr after glucose loading, 100 mg/kg orally). In addition, the “Lethal Dose” value in the data set on Male SD rats was above 70 mg/kg. Further, the “glucose lowering activities of metformin in combination with Compound 39 (FIG. 9)” value in data set [3] is on record as “enhanced”. Further, the “serum glucose (FIG. 9)” value in data set [3] (Compound 39 alone) is reported as “decreased serum glucose”.
